Data from ChEMBL document CHEMBL1629695, “A novel polymyxin derivative that lacks the fatty acid tail and carries only three positive charges has strong synergism with agents excluded by the intact outer membrane” (Antimicrob Agents Chemother, 2010).
Values after ≈ are worked out from the molar mass of the structure shown. Blank lines part the entries; values can stand above or below the molecule they belong to. Active and inactive are the calls of the source. The rule behind the calls is not given here. Bridge positions count the residues as written; N and C are the ends. Square brackets hold non-standard residues; d marks the D form. Peptide text beside a SMILES is read from it. Dab = NCC[C@H](N)C(=O)O

Assays:
Rattus norvegicus [1] = assay: (§1) Drug level in Sprague-Dawley rat urine at 1 mg/kg, iv; assay type: ADME, organism-based; parameters: dose 1 mg/kg, route intravenous; conditions: in vivo
Rattus norvegicus [2] = assay: (§2) Half-life in Sprague-Dawley rat at 1 mg/kg, iv; assay type: ADME, organism-based; parameters: dose 1 mg/kg, route intravenous; conditions: in vivo
Rattus norvegicus [3] = assay: (§3) Volume of distribution in Sprague-Dawley rat at 1 mg/kg, iv; assay type: ADME, organism-based; parameters: dose 1 mg/kg, route intravenous; conditions: in vivo
Acinetobacter baumannii [4] = assay: Antimicrobial activity against Acinetobacter baumannii ATCC 19606 assessed as zone of inhibition at 10 ug after 18 hrs by disk diffusion method; assay type: functional
Enterobacter cloacae [5] = assay: Antimicrobial activity against Enterobacter cloacae ATCC 23355 at 16 ug/ml; assay type: functional, organism-based
Pseudomonas aeruginosa [6] = assay: Antimicrobial activity against Pseudomonas aeruginosa ATCC 27853 assessed as zone of inhibition at 10 ug after 18 hrs by disk diffusion method; assay type: functional
Acinetobacter baumannii [7] = assay: Antimicrobial activity against Acinetobacter baumannii ATCC 19606 assessed as zone of inhibition at 10 ug after 18 hrs by disk diffusion method in presence of 1 ug/ml rifampin; assay type: functional
[8] = Total body clearance in Sprague-Dawley rat at 1 mg/kg, iv; assay type: ADME, organism-based; parameters: dose 1 mg/kg, route intravenous; conditions: in vivo
Escherichia coli [9] = assay: Antimicrobial activity against Escherichia coli F19; assay type: functional
[10] = Renal clearance in Sprague-Dawley rat at 1 mg/kg, iv; assay type: ADME, organism-based, Kidney; parameters: dose 1 mg/kg, route intravenous; conditions: in vivo, read-out: CL_renal
Pseudomonas aeruginosa [11] = assay: Antimicrobial activity against Pseudomonas aeruginosa ATCC 27853 assessed as zone of inhibition at 10 ug after 18 hrs by disk diffusion method in presence of 1 ug/ml rifampin; assay type: functional
[12] = as §1; assay type: ADME, organism-based; parameters: dose 1 mg/kg, route intravenous; conditions: Sprague-Dawley, urine, read-out: Drug uptake
[13] = as §2; assay type: ADME, organism-based; parameters: dose 1 mg/kg, route intravenous; conditions: Sprague-Dawley, in vivo
Escherichia coli [14] = assay: Antimicrobial activity against Escherichia coli IH3080 assessed as zone of inhibition at 10 ug after 18 hrs by disk diffusion method in presence of 1 ug/ml rifampin; assay type: functional
V79 = assay: Cytotoxicity against Chinese hamster V79 cells at 0.25 ug/ml to 128 ug/ml after 24 hrs; assay type: cell-based, Cricetulus griseus; conditions: v79, 24 h
Escherichia coli [15] = assay: Antimicrobial activity against Escherichia coli IH3080 assessed as zone of inhibition at 10 ug after 18 hrs by disk diffusion method; assay type: functional
[16] = as §3; assay type: ADME, organism-based; parameters: dose 1 mg/kg, route intravenous; conditions: Sprague-Dawley, in vivo
[17] = Plasma concentration in Sprague-Dawley rat at 1 mg/kg, iv administered after 10 minutes; assay type: ADME, organism-based; parameters: dose 1 mg/kg, route intravenous
Escherichia coli [18] = assay: Antimicrobial activity against in Escherichia coli ATCC 25922 in presence of NAB741; assay type: functional
Klebsiella pneumoniae [19] = assay: Antimicrobial activity against Klebsiella pneumoniae ATCC 13883 by Etest method; assay type: functional
Enterobacter cloacae [20] = assay: Antimicrobial activity against in Enterobacter cloacae ATCC 23355 in presence of NAB741; assay type: functional
Escherichia coli [21] = assay: Antimicrobial activity against Escherichia coli ATCC 25922; assay type: functional
Escherichia coli [22] = assay: Antimicrobial activity against Escherichia coli ATCC 25922 in presence of 8 ug/ml NAB741; assay type: functional
Acinetobacter baumannii [23] = assay: Antimicrobial activity against Acinetobacter baumannii ATCC 19606 by Etest method; assay type: functional
Escherichia coli [24] = assay: Antimicrobial activity against Escherichia coli ATCC 25922 in presence of 32 ug/ml NAB741; assay type: functional
Escherichia coli [25] = assay: Antimicrobial activity against Escherichia coli ATCC 25922 by Etest method in presence of 2 ug/ml NAB741; assay type: functional
Escherichia coli [26] = assay: Antimicrobial activity against in Escherichia coli IH3080 in presence of NAB741; assay type: functional
Escherichia coli [27] = assay: Antimicrobial activity against Escherichia coli ATCC 25922 in presence of […] ug/ml NAB741; assay type: functional
Acinetobacter baumannii [28] = assay: Ratio of MIC for Acinetobacter baumannii ATCC 19606 to MIC for Acinetobacter baumannii ATCC 19606 in presence of 4 ug/ml of NAB741; assay type: functional
Enterobacter cloacae [29] = assay: Antimicrobial activity against Enterobacter cloacae ATCC 23355 by Etest method in presence of 4 ug/ml NAB741; assay type: functional
Escherichia coli [30] = assay: Antimicrobial activity against Escherichia coli ATCC 25922 by Etest method in presence of 4 ug/ml NAB741; assay type: functional
Enterobacter cloacae [31] = assay: Antimicrobial activity against Enterobacter cloacae ATCC 23355 by Etest method in presence of 2 ug/ml NAB741; assay type: functional
Klebsiella pneumoniae [32] = assay: Antimicrobial activity against Klebsiella pneumoniae ATCC 13883 by Etest method in presence of 4 ug/ml NAB741; assay type: functional
Acinetobacter baumannii [33] = assay: Antimicrobial activity against Acinetobacter baumannii ATCC 19606 by Etest method in presence of 4 ug/ml NAB741; assay type: functional
Escherichia coli [34] = assay: Ratio of MIC for Escherichia coli ATCC 25922 to MIC for Escherichia coli ATCC 25922 in presence of 4 ug/ml of NAB741; assay type: functional
Acinetobacter baumannii [35] = assay: Antimicrobial activity against in Acinetobacter baumannii ATCC 19606 in presence of NAB741; assay type: functional
Klebsiella pneumoniae [36] = assay: Antimicrobial activity against Klebsiella pneumoniae ATCC 13883 by Etest method in presence of 2 ug/ml NAB741; assay type: functional
Enterobacter cloacae [37] = assay: Ratio of MIC for Enterobacter cloacae ATCC 23355 to MIC for Enterobacter cloacae ATCC 23355 in presence of 4 ug/ml of NAB741; assay type: functional
Escherichia coli [38] = assay: Antimicrobial activity against Escherichia coli ATCC 25922 in presence of 4 ug/ml NAB741; assay type: functional
Klebsiella pneumoniae [39] = assay: Ratio of MIC for Klebsiella pneumoniae ATCC 13883 to MIC for Klebsiella pneumoniae ATCC 13883 in presence of 4 ug/ml of NAB741; assay type: functional
Escherichia coli [40] = assay: Antimicrobial activity against Escherichia coli IH3080 by Etest method in presence of 2 ug/ml NAB741; assay type: functional
Escherichia coli [41] = assay: Antimicrobial activity against Escherichia coli ATCC 25922 by Etest method; assay type: functional
Klebsiella pneumoniae [42] = assay: Antimicrobial activity against in Klebsiella pneumoniae ATCC 13883 in presence of NAB741; assay type: functional
Escherichia coli [43] = assay: Antimicrobial activity against Escherichia coli ATCC 25922 in presence of 2 ug/ml NAB741; assay type: functional
Acinetobacter baumannii [44] = assay: Antimicrobial activity against Acinetobacter baumannii ATCC 19606 by Etest method in presence of 2 ug/ml NAB741; assay type: functional
Enterobacter cloacae [45] = assay: Antimicrobial activity against Enterobacter cloacae ATCC 23355 by Etest method; assay type: functional
Escherichia coli [46] = assay: Antimicrobial activity against Escherichia coli IH3080 by Etest method in presence of 4 ug/ml NAB741; assay type: functional
Escherichia coli [47] = assay: Antimicrobial activity against Escherichia coli IH3080 by Etest method; assay type: functional
Escherichia coli [48] = assay: Ratio of MIC for Escherichia coli IH3080 to MIC for Escherichia coli IH3080 in presence of 4 ug/ml of NAB741; assay type: functional

Drug uptake (Rattus norvegicus [1]): 0.18%
t1/2 (Rattus norvegicus [2]): 74.6 min
Vd (Rattus norvegicus [3]): 0.496 L/kg
Molecule: COLISTIN

clearance [8]: 7.39 mL/min/kg
MIC (Escherichia coli [9]): 16 µg/mL (≈ 16.1 µM)
CL renal [10]: 3.78 mL/min/kg
dose excreted [12]: 50.9%
half-life [13]: 32.7 min
Vd [16]: 0.243 L/kg
concentration at 10 min [17]: 3130 ng/mL
Molecule: CC(=O)N[C@H](C(=O)N[C@H](CO)C(=O)N[C@H]1CCNC(=O)[C@H]([C@@H](C)O)NC(=O)[C@H](CCN)NC(=O)[C@H](CCN)NC(=O)[C@H](CC(C)C)NC(=O)[C@@H](Cc2ccccc2)NC(=O)[C@H](CCN)NC1=O)[C@@H](C)O [SPR-741] (Ac-T[dS][Dab][Dab][dF]L[Dab][Dab]T; lactam 3-C)
inhibition zone (IZ) (Acinetobacter baumannii [4]): 9 mm2
Activity (Enterobacter cloacae [5]): Active
inhibition zone (IZ) (Pseudomonas aeruginosa [6]): 4 mm2
inhibition zone (IZ) (Acinetobacter baumannii [7]): 223 mm2
inhibition zone (IZ) (Pseudomonas aeruginosa [11]): 20 mm2
inhibition zone (IZ) (Escherichia coli [14]): 230 mm2
Activity (V79): Non-toxic
inhibition zone (IZ) (Escherichia coli [15]): 12 mm2

MIC (Klebsiella pneumoniae [19]): 12 µg/mL (≈ 16 µM)
MIC (Escherichia coli [21]): ≥ 64 µg/mL
MIC (Escherichia coli [22]): 0.5 µg/mL
MIC (Acinetobacter baumannii [23]): 8 µg/mL (≈ 10.7 µM)
MIC (Escherichia coli [24]): 0.063 µg/mL
MIC (Escherichia coli [25]): 0.5 µg/mL
MIC (Escherichia coli [27]): 0.25 µg/mL
MIC (Enterobacter cloacae [29]): 0.5 µg/mL
MIC (Escherichia coli [30]): 0.094 µg/mL
MIC (Enterobacter cloacae [31]): 16 µg/mL
MIC (Klebsiella pneumoniae [32]): 1 µg/mL
MIC (Acinetobacter baumannii [33]): 0.5 µg/mL
MIC (Klebsiella pneumoniae [36]): 4 µg/mL
MIC (Escherichia coli [38]): 1 µg/mL
MIC (Escherichia coli [40]): 1 µg/mL
MIC (Escherichia coli [41]): 16 µg/mL (≈ 21.4 µM)
MIC (Escherichia coli [43]): 32 µg/mL
MIC (Acinetobacter baumannii [44]): 0.75 µg/mL
MIC (Enterobacter cloacae [45]): 48 µg/mL (≈ 64.2 µM)
MIC (Escherichia coli [46]): 0.125 µg/mL
MIC (Escherichia coli [47]): 12 µg/mL (≈ 16 µM)
Molecule: CC[C@H]1OC(=O)[C@H](C)[C@@H](O[C@H]2C[C@@](C)(OC)[C@@H](O)[C@H](C)O2)[C@H](C)[C@@H](O[C@@H]2O[C@H](C)C[C@H](N(C)C)[C@H]2O)[C@](C)(OC)C[C@@H](C)C(=O)[C@H](C)[C@@H](O)[C@]1(C)O [CLARITHROMYCIN]
fractional inhibitory concentration index (FICI) (Escherichia coli [18]): 0.094
fractional inhibitory concentration index (FICI) (Enterobacter cloacae [20]): 0.135
fractional inhibitory concentration index (FICI) (Escherichia coli [26]): 0.126
Ratio (Acinetobacter baumannii [28]): 12
Ratio (Escherichia coli [34]): 84
fractional inhibitory concentration index (FICI) (Acinetobacter baumannii [35]): 0.156
Ratio (Enterobacter cloacae [37]): 64
Ratio (Klebsiella pneumoniae [39]): 6
fractional inhibitory concentration index (FICI) (Klebsiella pneumoniae [42]): 0.167
Ratio (Escherichia coli [48]): 64
